Laboratory results: patent US20220411448A1, “CHROMENE-4-ONE DERIVATIVES AS BRAIN-DERIVED NEUROTROPHIC FACTOR (BDNF) MIMETICS” (FLORATEK PHARMA AG, priority 2019, published 2022)

Key:
Astrocytes = experiment: Cellular ATP/ADP ratio (luciferase, CellTiter-Glo); assay type: cell-based, mouse
Experimental: ATP content was measured enzymatically as previously described [Lambert H P et al, Control of Mitochondrial pH by Uncoupling Protein 4 in Astrocytes Promotes Neuronal Survival, 2014 The Journal of Biological Chemistry 289, 31014-31028] using a luciferase assay, the CellTiter-Glo Luminescent cell viability assay (Promega). Astrocytes grown on multiplate of 48 wells were rinsed and incubated 1 h at 37° C. in an atmosphere containing 5% CO2 and 95% air in DMEM (D5030; Sigma-Aldrich) containing 44 mm NaHCO3 and 2 mm glucose. At the end of the incubation, medium was removed, and 200 μl of Tricine buffer solution (40 mm Tricine, 3 mm EDTA, 85 mm NaCl, 3.6 mm KCl, 100 mm NaF, and 0.1% saponin (84510; Sigma-Aldrich), pH 7.4) was put in each well. Cells were lysed by saponin effect and by pipetting. Each sample was divided for ATP measure and for ATP+ADP measure. 90-μl aliquots were distributed in a black-walled 96-well type microplates (PerkinElmer Life Sciences). […] Finally, 100 μl of CellTiter-Glo reagent (G7571; Promega) was added, and luminescence was immediately detected with a luminometer (Safire 2; Tecan). Luminescence was measured in a kinetic way determined by 20 readings at intervals of 1 min. Luminescence read at the plateau were taken to calculate the ATP/ADP ratio. […]

[1] = test system: cortical neurons with MPP+ lesion; experiment: MPP+ induced apoptosis in cortical neurons (YO-PRO-1); assay type: cell-based, mouse; conditions: 0.5 and 1 μM, 24 h MPP+ lesion
Experimental: Mouse cortical neurons were prepared as described. At DIV8 cells were treated with the test and control MK801 compounds for 1 h, before the addition of MPP+(Sigma, D048) at a final concentration of 100-200 μM. The experiment was carried out with n=6 technical replicates per condition, vehicle and MPP+ alone controls were included. After 8 h determination of ROS was conducted and after 24 h of MPP+ lesion on DIV9 cells were subject to the apoptosis measurement. Apoptosis was determined using YO-PRO™-1 Iodide (Invitrogen; Y3603). Part of supernatant of the cultivated cells was removed and 10 μL of a 50 μM YO-PRO 1 solution in PBS is added to the remaining 90 μL to result in a final concentration of 5 μM YO-PRO 1 in well. Incubation for 15 min in the incubator at 37° C. was performed (light protected) followed by discarding the supernatant. 140 μL PBS was added to each well and the fluorescence was measured using a plate-reader (Cytation 5, BioTek) at excitation wavelength 485 nm to Emission wavelength 535 nm.

[2] = Metabolic stability in mouse intestine microsomes; assay type: in vitro ADME; conditions: male, CD1, mouse, pooled intestine microsomes, pH 7.4, intestinal microsomes, 0.5 mg/ml protein, read-out: T1/2 IM mouse
Experimental: Sample type: pooled liver or intestine microsomes; Species: CD1-mouse (male), human (mixed gender) Time points: 0, 10, 20, 40, 60 min cofactors, and negative control;
Protein content: 0.5 mg/ml: Replicates: 2 with cofactors, 1 without cofactors; Cofactors: NADPH (1 mM)+UDPGA (1 mM)+15 μg/ml alamethicin Buffer: 0.1 M phosphate buffer pH 7.4, 2 mM MgCl2; Spiking solvent: 50% DMSO ( 1/100 to incubation); Quenching solvent: 2-fold volume of 75% ACN, Control: midazolam disappearance rate
The study compounds were incubated with liver or intestine microsomes as specified above. The collected samples were stored at −20 C until thawed at room temperature, centrifuged and analyzed as presented below.
The samples were analysed by UPLC/HR-MS (with data dependent MS/MS mode) to monitor substrate depletion (and later optionally metabolite formation). The analytical method was optimised by using the parent compound for optimum chromatographic properties (peak shape and retention) and mass spectrometric ionisation. Disappearance rate of the study compound was estimated based on relative LC/MS peak areas (o min marked as 100%), and was used to calculate in vitro half-life and clearance (and in vivo extrapolation of hepatic clearance).

O=c1cc(-c2ccc(CCCC[P+](c3ccccc3)(c3ccccc3)c3ccccc3)cc2)oc2c(O)c(O)ccc12 [SND118, 4-[4-(7,8-dihydroxy-4-oxo-chromen-2-yl)phenyl]butyltriphenylphosphonium bromide]
production of ATP (Astrocytes; 100 nM, 30 min): increased production of ATP
ATP/ADP ratio (Astrocytes; various doses): trended higher at most doses
apoptosis induced by MPP+ (YO-PRO-1) [1]: significantly inhibited apoptosis
half-life at 1 μM [2]: 27.6 min
